Assay results reported in US10294234B2, “HIV inhibitor compounds” (priority 2017, dated 2019).
Read-outs that look alike come from different tables or passages of the source.

Experiments:
[1] = system: HIV-1 (IIIB) in MT-4 cells; test: MT-4 HIV assay; assay type: cell-based; settings: Human immunodeficiency virus 1, MT4, 120 h; HIV-1 (IIIB), MT-4 cells, 5 days, Cell Titer Glo; read-out: EC50
How it was run: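 MT-4 cells infected with HIV-1 IIIB (1:250 stock dilution) were incubated with 1:3 serially diluted compounds in RPMI with 10% FBS for 5 days at 37 °C. Cell Titer Glo luminescence was the readout. Plates included mock-infected wells, no-drug wells and 5 uM AZT controls.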

[2] = Protocol: Liver Microsomal Stability Protocol
Test compounds and one control compound (verapamil) were tested in 3 different species in duplicate sets.
Test compound concentration: 1 uM; Protein concentration: 0.5 mg/mL (for dog, rat, and human liver microsomes); Cofactor: NADPH-Regenerating system (NRS) solution; Time-points: 2, 12, 25, 45, and 65 minutes.
Reaction composition (in each incubation well) contains:
After plates were vortexed, they were centrifuged for 30 minutes to remove proteins. About 100 μL supernatant was removed to a new plate and diluted with 150 μL water. About 20 μL of the mixture was injected into LC/MS/MS system to monitor the compound's response. In vitro measured t1/2 was used to calculate Clint values.

[3] = human liver microsomes 0.5 mg/mL, 1 uM compound, NADPH
[4] = rat liver microsomes 0.5 mg/mL, 1 uM compound, NADPH

With `COC(=O)N[C@H](C(=O)N[C@@H](Cc1ccc(C#Cc2ccc(N3CC4CCC(C3)[N+]4(C)C3COC3)nc2)cc1)[C@@H](O)CN(Cc1c(F)cc(-c2ccn(C(F)F)n2)cc1F)NC(=O)[C@@H](NC(=O)OC)C(C)(C)C(F)(F)F)C(C)(C)C(F)(F)F` (stereo partly drawn) [Example 48, 3-(5-((4-((2S,3S)-4-(1-(4-(1-(difluoromethyl)-1H-pyrazol-3-yl)-2,6-difluorobenzyl)-2-((S)-4,4,4-trifluoro-2-((methoxycarbonyl)amino)-3,3-dimethylbutanoyl)hydrazinyl)-3-hydroxy-2-((S)-4,4,4-trifluoro-2-((methoxycarbonyl)amino)-3,3-dimethylbutanamido)butyl)phenyl)ethynyl)pyridin-2-yl)-8-methyl-8-(oxetan-3-yl)-3,8-diazabicyclo[3.2.1]octan-8-ium] the EC50 [1] was 114 nM, the “Human Pred Cl.” value ([2]; human, microsomes) was less than 0.11 L/H/kg and the “Rat. Pred. Cl.” value ([2]; rat, microsomes) was 0.18 L/H/kg.
For `COC(=O)N[C@H](C(=O)N[C@@H](Cc1ccc(C#Cc2cnc(N3CC4CCC(C3)N4C3COC3)cn2)cc1)[C@@H](O)CN(Cc1c(F)cc(-c2ccn(C(F)F)n2)cc1F)NC(=O)[C@@H](NC(=O)OC)C(C)(C)C(F)(F)F)C(C)(C)C(F)(F)F` [Example 50, Methyl ((5S,8S,9S,14S)-11-(4-(1-(difluoromethyl)-1H-pyrazol-3-yl)-2,6-difluorobenzyl)-16,16,16-trifluoro-9-hydroxy-15,15-dimethyl-8-(4-((5-(8-(oxetan-3-yl)-3,8-diazabicyclo[3.2.1]octan-3-yl)pyrazin-2-yl)ethynyl)benzyl)-3,6,13-trioxo-5-(1,1,1-trifluoro-2-methylpropan-2-yl)-2-oxa-4,7,11,12-tetraazahexadecan-14-yl)carbamate], the EC50 [1] was 4.31 nM, the “Human Pred Cl.” value ([2]; human, microsomes) was less than 0.11 L/H/kg and the “Rat. Pred. Cl.” value ([2]; rat, microsomes) was less than 0.18 L/H/kg.
For `COC(=O)N[C@H](C(=O)N[C@@H](Cc1ccc(C#Cc2ccc(N3CC[N+]4([O-])CCOC[C@H]4C3)nc2)cc1)[C@@H](O)CN(Cc1c(F)cc(-c2ccn(C(F)F)n2)cc1F)NC(=O)[C@@H](NC(=O)OC)C(C)(C)C(F)(F)F)C(C)(C)C(F)(F)F` (stereo partly drawn) [Example 52, (9aR)-8-(5-((4-((2S,3S)-4-(1-(4-(1-(difluoromethyl)-1H-pyrazol-3-yl)-2,6-difluorobenzyl)-2-((S)-4,4,4-trifluoro-2-((methoxycarbonyl)amino)-3,3-dimethylbutanoyl)hydrazinyl)-3-hydroxy-2-((S)-4,4,4-trifluoro-2-((methoxycarbonyl)amino)-3,3-dimethylbutanamido)butyl)phenyl)ethynyl)pyridin-2-yl)octahydro-5H-pyrazino[2,1-c][1,4]oxazine 5-oxide], the EC50 [1] was 8.15 nM, the “Human Pred Cl.” value [2, 3] was 0.14 L/H/kg and the “Rat. Pred. Cl.” value [2, 4] was less than 0.18 L/H/kg.
In the case of `COC(=O)N[C@H](C(=O)NN(Cc1c(F)cc(-c2ccccn2)cc1F)C[C@H](O)[C@H](Cc1ccc(C#Cc2ccc(N3CC4CCC(C3)N4C3COC3)nc2)cc1)NC(=O)[C@@H](NC(=O)OC)C(C)(C)C(F)(F)F)C(C)(C)C` [Example 53, Methyl ((5S,8S,9S,14S)-11-(2,6-difluoro-4-(pyridin-2-yl)benzyl)-9-hydroxy-15,15-dimethyl-8-(4-((6-(8-(oxetan-3-yl)-3,8-diazabicyclo[3.2.1]octan-3-yl)pyridin-3-yl)ethynyl)benzyl)-3,6,13-trioxo-5-(1,1,1-trifluoro-2-methylpropan-2-yl)-2-oxa-4,7,11,12-tetraazahexadecan-14-yl)carbamate], the EC50 [1] is reported as 2.98 nM, the “Human Pred Cl.” value ([2]; human, microsomes) is reported as 0.51 L/H/kg and the “Rat. Pred. Cl.” value ([2]; rat, microsomes) is reported as 0.2 L/H/kg.
With `COC(=O)N[C@H](C(=O)N[C@@H](Cc1ccc(C#Cc2ccc(N3C4CC3CN(C3COC3)C4)nc2)cc1)[C@@H](O)CN(Cc1c(F)cc(-c2cnn(C(F)F)c2)cc1F)NC(=O)[C@@H](NC(=O)OC)C(C)(C)C(F)(F)F)C(C)(C)C(F)(F)F` [Example 59, Methyl ((5S,8S,9S,14S)-11-(4-(1-(difluoromethyl)-1H-pyrazol-4-yl)-2,6-difluorobenzyl)-16,16,16-trifluoro-9-hydroxy-15,15-dimethyl-8-(4-((6-(3-(oxetan-3-yl)-3,6-diazabicyclo[3.1.1]heptan-6-yl)pyridin-3-yl)ethynyl)benzyl)-3,6,13-trioxo-5-(1,1,1-trifluoro-2-methylpropan-2-yl)-2-oxa-4,7,11,12-tetraazahexadecan-14-yl)carbamate] the EC50 [1] was 3.38 nM, the “Human Pred Cl.” value ([2]; human, microsomes) was 0.6 L/H/kg and the “Rat. Pred. Cl.” value ([2]; rat, microsomes) was 0.83 L/H/kg.
For `COC(=O)N[C@H](C(=O)N[C@@H](Cc1ccc(C#Cc2ccc(N3CC4CC(C3)N4C3COC3)nc2)cc1)[C@@H](O)CN(Cc1c(F)cc(-c2cnn(C(F)F)c2)cc1F)NC(=O)[C@@H](NC(=O)OC)C(C)(C)C(F)(F)F)C(C)(C)C(F)(F)F` [Example 60, Methyl ((5S,8S,9S,14S)-11-(4-(1-(difluoromethyl)-1H-pyrazol-4-yl)-2,6-difluorobenzyl)-16,16,16-trifluoro-9-hydroxy-15,15-dimethyl-8-(4-((6-(6-(oxetan-3-yl)-3,6-diazabicyclo[3.1.1]heptan-3-yl)pyridin-3-yl)ethynyl)benzyl)-3,6,13-trioxo-5-(1,1,1-trifluoro-2-methylpropan-2-yl)-2-oxa-4,7,11,12-tetraazahexadecan-14-yl)carbamate], the EC50 [1] was 3.42 nM, the “Human Pred Cl.” value ([2]; human, microsomes) was 0.12 L/H/kg and the “Rat. Pred. Cl.” value ([2]; rat, microsomes) was 0.65 L/H/kg.
For `COC(=O)N[C@H](C(=O)N[C@@H](Cc1ccc(C#Cc2ccc(N3CC4CC(CN(C(C)=O)C4)C3)nc2)cc1)[C@@H](O)CN(Cc1c(F)cc(-c2cnn(C(F)F)c2)cc1F)NC(=O)[C@@H](NC(=O)OC)C(C)(C)C(F)(F)F)C(C)(C)C(F)(F)F` [Example 67, Methyl ((5S,8S,9S,14S)-8-(4-((6-(7-acetyl-3,7-diazabicyclo[3.3.1]nonan-3-yl)pyridin-3-yl)ethynyl)benzyl)-1-(4-(1-(difluoromethyl)-1H-pyrazol-4-yl)-2,6-difluorobenzyl)-16,16,16-trifluoro-9-hydroxy-15,15-dimethyl-3,6,13-trioxo-5-(1,1,1-trifluoro-2-methylpropan-2-yl)-2-oxa-4,7,11,12-tetraazahexadecan-14-yl)carbamate], the EC50 [1] was 6.25 nM, the “Human Pred Cl.” value [2, 3] was 0.41 L/H/kg and the “Rat. Pred. Cl.” value [2, 4] was 1.43 L/H/kg.
In the case of `COC(=O)N[C@H](C(=O)N[C@@H](Cc1ccc(C#Cc2ccc(N3CC4CCC(C3)O4)nc2)cc1)[C@@H](O)CN(Cc1c(F)cc(-c2cnn(C(F)F)c2)cc1F)NC(=O)[C@@H](NC(=O)OC)C(C)(C)C(F)(F)F)C(C)(C)C(F)(F)F` [Example 68, Methyl ((5S,8S,9S,14S)-8-(4-((6-(8-oxa-3-azabicyclo[3.2.1]octan-3-yl)pyridin-3-yl)ethynyl)benzyl)-11-(4-(1-(difluoromethyl)-1H-pyrazol-4-yl)-2,6-difluorobenzyl)-16,16,16-trifluoro-9-hydroxy-15,15-dimethyl-3,6,13-trioxo-5-(1,1,1-trifluoro-2-methylpropan-2-yl)-2-oxa-4,7,11,12-tetraazahexadecan-14-yl)carbamate], the EC50 [1] is reported as 7.25 nM, the “Human Pred Cl.” value [2, 3] is reported as less than 0.11 L/H/kg and the “Rat. Pred. Cl.” value [2, 4] is reported as 0.61 L/H/kg.
For `COC(=O)N[C@H](C(=O)N[C@@H](Cc1ccc(C#Cc2ccc(-c3cn4c(n3)CN(C)C(=O)C4)cc2)cc1)[C@@H](O)CN(Cc1c(F)cc(-c2cnn(C(F)F)c2)cc1F)NC(=O)[C@@H](NC(=O)OC)C(C)(C)C(F)(F)F)C(C)(C)C(F)(F)F` [Example 69, Methyl ((5S,8S,9S,14S)-11-(4-(1-(difluoromethyl)-1H-pyrazol-4-yl)-2,6-difluorobenzyl)-16,16,16-trifluoro-9-hydroxy-15,15-dimethyl-8-(4-((4-(7-methyl-6-oxo-5,6,7,8-tetrahydroimidazo[1,2-a]pyrazin-2-yl)phenyl)ethynyl)benzyl)-3,6,13-trioxo-5-(1,1,1-trifluoro-2-methylpropan-2-yl)-2-oxa-4,7,11,12-tetraazahexadecan-14-yl)carbamate], the EC50 [1] was 3.24 nM, the “Human Pred Cl.” value [2, 3] was less than 0.11 L/H/kg and the “Rat. Pred. Cl.” value [2, 4] was less than 0.18 L/H/kg.
In the case of `COC(=O)N[C@H](C(=O)N[C@@H](Cc1ccc(C#Cc2ccc(N3CC4CCC(C3)N4S(C)(=O)=O)nc2)cc1)[C@@H](O)CN(Cc1c(F)cc(-c2cnn(C(F)F)c2)cc1F)NC(=O)[C@@H](NC(=O)OC)C(C)(C)C(F)(F)F)C(C)(C)C(F)(F)F` [Example 70, Methyl ((5S,8S,9S,14S)-11-(4-(1-(difluoromethyl)-1H-pyrazol-4-yl)-2,6-difluorobenzyl)-16,16,16-trifluoro-9-hydroxy-15,15-dimethyl-8-(4-((6-(8-(methylsulfonyl)-3,8-diazabicyclo[3.2.1]octan-3-yl)pyridin-3-yl)ethynyl)benzyl)-3,6,13-trioxo-5-(1,1,1-trifluoro-2-methylpropan-2-yl)-2-oxa-4,7,11,12-tetraazahexadecan-14-yl)carbamate], the EC50 [1] is reported as 4.79 nM, the “Human Pred Cl.” value ([2]; human, microsomes) is reported as less than 0.11 L/H/kg and the “Rat. Pred. Cl.” value ([2]; rat, microsomes) is reported as less than 0.18 L/H/kg.
